Consider 8 compounds from the supplement of paper PMC11061612.

Test in all cases: Bliss excess, mean over the matrix (fraction); higher = more synergy
One assay deals with AM-38 (Glioblastoma). In outline: (§1)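 After 24 hours at 37°C and 5% CO2 in 1536-well plates, cells in DMEM/F12 or RPMI plus 10% FBS received two-drug dose matrices for 72 hours. Viability came from CellTiter-Glo 2.0 luminescence and was scaled as inhibition, anchored at 0 by vehicle wells and at 1 by blank wells. Combination Emax is taken as the second-highest inhibition in the matrix, and Bliss excess as the observed combination effect less EA + EB − EA·EB, with EA and EB the single-agent effects.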

Assay [1] relates to CL-11 (Colorectal Carcinoma). In outline:
as §1

Assay [2] relates to IA-LM (Non-Small Cell Lung Carcinoma). In short, it runs like this: as §1
The test system of assay [3] is KP-4 (Pancreatic Carcinoma). In outline:
as §1

Assay [4] has as its system MOLT-13 (T-Lymphoblastic Leukemia). In outline: as §1
In assay [5] the test system is NMC-G1 (Low Grade Glioma). In outline:
as §1

Assay [6] concerns OAW-28 (Ovarian Carcinoma). In outline: as §1
The subject of assay [7] is P30-OHK (B-Lymphoblastic Leukemia). In short, it runs like this: as §1
Assay [8] has as its system RCC-JW (Kidney Carcinoma). In outline: as §1
Assay [9] has as its system SAT (Head and Neck Carcinoma). In outline: as §1
Assay [10] concerns SK-CO-1 (Colorectal Carcinoma). In short, it runs like this: as §1
A further assay deals with SK-N-SH (Neuroblastoma). In short, it runs like this:
as §1

For assay [11], the system named is SNU-423 (Hepatocellular Carcinoma). In outline: as §1
Assay [12] has as its system SiHa (Cervical Carcinoma). In outline: as §1

Take `Cc1cc2ncnn2cc1Nc1ncc2c(n1)n(C1CCOCC1)c(=O)n2C` [AZD7648] + O=C(c1cc(Cc2n[nH]c(=O)c3ccccc23)ccc1F)N1CCN(C(=O)C2CC2)CC1 [Olaparib] (first compound max 10 µM, 7x7, partner max 10 µM): the Bliss excess in the assay on AM-38 (Glioblastoma) is 0.0174; in [1], -0.0464; in assay [2], -0.042; in assay [3] it was -0.0225; in assay [4], 0.0242; in [5] it was -0.0538. Also, the Bliss excess in assay [6] is -0.0127; in [7], 0.0285; in assay [8] it was -0.0795; in [9], -0.039; in [10] it was -0.0466; in the assay with SK-N-SH (Neuroblastoma), 0.0056. Also, the Bliss excess is -0.0451 in [11] and -0.0389 in assay [12].

As to `CN(C)CCCOc1ccc(-c2ccc3ncc4c(c3c2)n(C2CCOCC2)c(=O)n4C)cn1` [AZD0156] + CCN(CCO)CCCOc1ccc2c(Nc3cc(CC(=O)Nc4cccc(F)c4)[nH]n3)ncnc2c1 [AZD2811] (first compound max 1 µM, 7x7, partner max 1 µM), the Bliss excess with AM-38 (Glioblastoma) was 0.0165; in [1], -0.0288; in assay [2], -0.0326; in assay [3] it was -0.0162; in assay [4] it was 0.0392; in assay [5], -0.0855. Besides, the Bliss excess in assay [6] was -0.0061; in assay [7], -0.0439; in [8], -0.0243; in assay [9] it was -0.0362; in assay [10], 0.0205; in the assay on SK-N-SH (Neuroblastoma), -0.0133. For the same compound, the figures for the Bliss excess in assay [11] and in assay [12] were -0.0192 and -0.0083, respectively.

As for `Cc1c2c(nn1C)CSCc1cc(n(C)n1)CSc1cc(c3ccccc3c1)OCCCc1c(C(=O)O)n(C)c3c-2c(Cl)ccc13` [AZD5991] + CN(C)CCCOc1ccc(-c2ccc3ncc4c(c3c2)n(C2CCOCC2)c(=O)n4C)cn1 [AZD0156] (first compound max 1 µM, 7x7, partner max 1 µM), the Bliss excess in the assay with AM-38 (Glioblastoma) is 0.0291; in assay [1], -0.0081; in assay [2], -0.0333; in assay [3], 0.0187; in assay [4] it was -0.0198; in [5], -0.0387. The Bliss excess in assay [6] was 0.0335; in assay [7], -0.0042; in assay [8] it was -0.0001; in assay [9], -0.0186; in [10], -0.0182; in the assay on SK-N-SH (Neuroblastoma), 0.0204. Also, the Bliss excess in [11] is -0.0259; in assay [12], 0.0341.

Turning to `CN(CCO)CC[C@H](CSc1ccccc1)Nc1ccc(S(=O)(=O)NC(=O)c2ccc(N3CCC([C@@H](O)c4ccccc4-c4ccc(Cl)cc4)CC3)cc2)cc1S(=O)(=O)C(F)(F)F` [AZD4320] + Cc1cc2ncnn2cc1Nc1ncc2c(n1)n(C1CCOCC1)c(=O)n2C [AZD7648] (first compound max 1 µM, 7x7, partner max 10 µM), the Bliss excess is -0.003 in the assay with AM-38 (Glioblastoma); -0.033 in assay [1]; -0.0482 in [2]; -0.0578 in assay [3]; 0.0309 in assay [4]; -0.0452 in assay [5]. The Bliss excess in assay [6] is -0.0348; in assay [7] it was 0.0216; in assay [8], -0.0476; in assay [9], -0.0621; in assay [10], -0.0224; in the assay on SK-N-SH (Neuroblastoma) it was 0.0283. Besides, the Bliss excess in assay [11] was -0.0311; in [12], -0.0385.

Regarding `COc1cccc(OCCCN)c1-c1cc(Nc2cnc(C#N)cn2)n[nH]1` [Prexasertib] + Cc1cc2ncnn2cc1Nc1ncc2c(n1)n(C1CCOCC1)c(=O)n2C [AZD7648] (first compound max 1 µM, 7x7, partner max 10 µM), the Bliss excess in the assay with AM-38 (Glioblastoma) was 0.0296; in [1], -0.0065; in [2] it was 0.0324; in assay [3] it was 0.0031; in assay [4], 0.004; in assay [5] it was -0.0374. The Bliss excess in assay [6] is -0.025; in [7], -0.0301; in [8] it was 0.0374; in assay [9], -0.0294; in [10], -0.009; in the assay on SK-N-SH (Neuroblastoma), -0.0138. Moreover, the Bliss excess in assay [11] was -0.0244; in [12] it was -0.0174.

For `CC1(C)CCC(CN2CCN(c3ccc(C(=O)NS(=O)(=O)c4ccc(NCC5CCOCC5)c([N+](=O)[O-])c4)c(Oc4cnc5[nH]ccc5c4)c3)CC2)=C(c2ccc(Cl)cc2)C1` [Venetoclax] + CN(C)CCCOc1ccc(-c2ccc3ncc4c(c3c2)n(C2CCOCC2)c(=O)n4C)cn1 [AZD0156] (first compound max 1 µM, 7x7, partner max 1 µM), the Bliss excess was -0.0183 in the assay with AM-38 (Glioblastoma); -0.0419 in assay [1]; -0.0238 in assay [2]; -0.0344 in assay [3]; 0.0928 in [4]; -0.0373 in assay [5]. For the same compound, the Bliss excess in [6] is 0.0076; in [7], 0.0881; in assay [8], 0.0087; in assay [9] it was -0.015; in [10], -0.0119; in the assay on SK-N-SH (Neuroblastoma), -0.0542. Moreover, the Bliss excess in assay [11] was -0.0429; in [12], -0.0419.

For `CN(CCO)CC[C@H](CSc1ccccc1)Nc1ccc(S(=O)(=O)NC(=O)c2ccc(N3CCC([C@@H](O)c4ccccc4-c4ccc(Cl)cc4)CC3)cc2)cc1S(=O)(=O)C(F)(F)F` [AZD4320] + C=CCn1c(=O)c2cnc(Nc3ccc(N4CCN(C)CC4)cc3)nc2n1-c1cccc(C(C)(C)O)n1 [AZD1775] (first compound max 1 µM, partner max 1 µM), the Bliss excess in the assay on AM-38 (Glioblastoma) is 0.0931; in assay [1], -0.0201; in [2] it was 0.0161; in assay [3] it was -0.0187; in assay [4], 0.064; in assay [5], 0.0422. The Bliss excess is 0.0652 in assay [6]; 0.141 in assay [7]; 0.0546 in assay [8]; -0.0251 in assay [9]; -0.0412 in assay [10]; -0.0141 with SK-N-SH (Neuroblastoma). In addition, the Bliss excess in [11] is -0.0129; in assay [12] it was -0.0358.

With `Cc1c2c(nn1C)CSCc1cc(n(C)n1)CSc1cc(c3ccccc3c1)OCCCc1c(C(=O)O)n(C)c3c-2c(Cl)ccc13` [AZD5991] + C[C@@H](Nc1cc(F)cc(F)c1)c1cc(C(=O)N(C)C)cc2c(=O)cc(N3CCOCC3)oc12 [AZD8186] (first compound max 1 µM, 7x7, partner max 3 µM), the Bliss excess with AM-38 (Glioblastoma) is -0.0352; in assay [1], -0.0377; in [2], -0.0274; in assay [3], -0.0235; in assay [4] it was -0.0116; in assay [5], -0.059. In addition, the Bliss excess is 0.0538 in assay [6]; 0.0058 in [7]; 0.0126 in assay [8]; -0.0731 in assay [9]; -0.0398 in [10]; -0.0094 in the assay on SK-N-SH (Neuroblastoma). In addition, the Bliss excess in [11] is -0.0326; in assay [12], 0.0044.
